Source: patent US7943795B2, “Vitamin D receptor modulators” (Eli Lilly and Company, priority 2004, dated 2011)

What was measured:
RXR-VDR heterodimer = molecular target: T1, RXR-VDR heterodimer (Homo sapiens, UniProt P11473); experiment: RXR-VDR heterodimerization (SaOS-2 cells) test; format: cell-based; settings: Gal-4-RXR-DEF / VP16-VDR-LBD, luciferase reporter
T1 construct: add the Reporter gene pFR-LUC; and add the Gal-4-RXR-DEF and VP16-VDR-LBD; expressed in transfected cells; host or cells: SaOS-2 cells
T1 sequence (P11473 127-423 limits assumed): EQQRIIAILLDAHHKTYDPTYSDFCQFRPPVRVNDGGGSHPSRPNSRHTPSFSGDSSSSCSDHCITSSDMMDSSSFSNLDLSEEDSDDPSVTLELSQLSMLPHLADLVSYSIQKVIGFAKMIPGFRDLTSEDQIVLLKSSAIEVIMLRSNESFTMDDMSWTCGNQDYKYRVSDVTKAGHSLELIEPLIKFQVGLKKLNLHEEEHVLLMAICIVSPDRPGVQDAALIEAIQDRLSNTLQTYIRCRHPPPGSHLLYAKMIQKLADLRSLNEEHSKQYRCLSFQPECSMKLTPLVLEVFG
T1 sequence (P19793 201-462 partner limits assumed): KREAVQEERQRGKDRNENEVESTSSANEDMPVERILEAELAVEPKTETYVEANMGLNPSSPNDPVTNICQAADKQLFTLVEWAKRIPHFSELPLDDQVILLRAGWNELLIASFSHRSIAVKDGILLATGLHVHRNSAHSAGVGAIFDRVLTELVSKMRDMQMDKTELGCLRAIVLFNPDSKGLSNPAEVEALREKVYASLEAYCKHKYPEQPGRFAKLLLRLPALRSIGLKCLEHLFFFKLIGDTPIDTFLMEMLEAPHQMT
Method: 2. The RXR-VDR heterodimerization (SaOS-2 cells) test is described in the “Assay” section of the Description, infra.
1. The RXR-VDR Heterodimer Assay:
This assay provides the VDR activity of a test compound. It is desirable to have low EC50 values for a compound in this assay. […] Desired assay results are EC50 values less than or equal to 600 nM. Preferred assay results are less than 250 nM, and most preferably less than 150 nM.
(1) Materials and Method for RXR-VDR Heterodimerization Assay Transfection
• Method: Reagents: FuGENE 6 Transfection Reagent (Roche Cat #1 814 443); Growth Media: D-MEM High Glucose (Gibco BRL Cat #11054-020), 10% heat inactivated FBS, (Gibco BRL Cat#10092-147) 1% antibiotic-antimycotic (Ab-Am); (Gibco BRL Cat #15240-062). • Cells: Grow SaOS-2 cells in T-150 cm^2 culture flasks in growth media keeping the density at 5-6×10^5 cells/ml. Passage cells 1:3 twice a week. Add Trypsin EDTA (Gibco BRL Cat #25300-020) and incubate. Resuspend cells in plating media and transfer into growth media. • Wash Media: HBSS Low Glucose Without Phenol Red (Gibco BRL Cat #14175-095), 1% Ab-Am. Plating Media: D-MEM Low Glucose Without Phenol Red (Gibco BRL Cat #11054-020), 1% Ab-Am; D-MEM; 10% Stripped FBS (Hyclone Cat#SH30068.03 Lot #AHM9371); • Transfection/Treatment Media: D-MEM Low Glucose Without Phenol Red only; T-150 cm^2 culture flask: Use Corning Coastar T-150 cm^2 culture flask (Cat #430825) to grow the cells. • Luciferase Assay Reagent: Use Steady-Glo Luciferase Reagent from Promega (Cat #E2550) Consists of: E2533 Assay Substrate, lyophilized product and E2543 Assay Buffer. Thaw at room temperature and store. • Cell Harvesting/Count: Aspirate media from culture flask, rinse cells with HBSS and aspirate. Add trypsin and incubate. When cells appear detached, resuspend cells in growth media. Transfer into a new flask with fresh growth media for passaging the cells. Plate 96 well plates and two extra plates. Mix the cell suspension using pipette. To count the cells using a Hematocytometer. • Plate seeding: Use plating media 10% Stripped FBS in D-MEM Low Glucose, without Phenol Red, 1% Ab-Am. Plate 14 plates @ 165 μl/well. In sterile flask add cell suspension to plating media and mix. Add cells/well. Place the cells in the incubator. Cells should be about 75% confluent prior to transfection. DAY 2: Transfection: Step 1, DNA and Media: Add plain DMEM media to tubes for mixing the DNA; add the Reporter gene pFR-LUC; and add the Gal-4-RXR-DEF and VP16-VDR-LBD. Step 2, FuGENE and Media: Prepare plain DMEM media in a tubes for mixing FuGENE, add FuGENE 6 Transfection Reagent, and incubate. Step 3, FuGENE, DNA and Media Complex: Add FuGENE Media complex from step 2 to DNA Media complex from step 1 and incubate. Step 4, FuGENE, DNA and Media Complex to 96 well plate: Add FuGENE-DNA-Media complex from step 3 to each plate. Incubate. • Day 3: Dosing: Treatment preparation. Allow for transfection time. Make a stock solution of the compounds in DMSO and vortex until all the compounds have been dissolved. Further dilute in D-MEM (Low Glucose—without Phenol Red) Add compounds in quadruplicate to give desired final volume then incubate. • Day 4: Luciferase Assay: Read the plates after drug treatment. Remove part of media from all the wells and leave remainder. Add Steady-Glo Luciferase Reagent mixture/wells and incubate. Count each well using a Luminescence counter, Top Count NXT by Packard preferably set a delay between plates to reduce the background.

[1] = Mouse hypercalcemia assay; format: in vivo
Method: 5. The Mouse Hypercalcemia test is described in the “Assay” section of the Description, infra.
The Mouse Hypercalcemia Assay
The Mouse Hypercalcemia Assay is a six day hypercalcemia test for toxicity and selectivity. Acceptable test results are levels greater than 30 μg/kg/day. Preferred assay results are levels greater than 300 μg/kg/day.
Weanling, virus—antibody-free, five to six weeks old female DBF mice (Harlan, Indianapolis, Ind.) are used for all the studies. Animals are allowed to acclimate to local vivarium conditions for 2 days. Mice are maintained on a 12 hr light/dark cycle at 22° C. with ad lib access to food (TD 5001 with 1.2% Ca and 0.9% P, Teklad, Madison, Wis.) and water. The animals then are divided into groups with 4-5 mice per group. Different doses of test compounds prepared in 10% ethanol and 90% sesame oil, or in an aqueous suspension of sodium lauryl sulfate and CMC (the latter formulation for acidic compounds) are administered to mice orally via gavage for 6 days. 1α-25(OH)2D3 0.5 μg/kg/d was also given to one group of mice as the positive control. Serum ionized calcium is evaluated at 6 hours after the last dosing under isoflurane anesthesia by Ciba-Corning Ca++/PH Analyzer, (Model 634, Chiron Diagnostics Corp., East Walpole, Mass.). Raw data of group differences is assessed by analysis of variance (ANOVA) using Fisher's protected least significant difference (PLSD) where the significance level was P<0.05.

[2] = no effect level: highest dose that did not cause hypercalcemia, oral gavage for 6 days, female DBF mice, serum ionized calcium
[3] = female, DBF, mouse, in vivo, po, 6 days

What does the source list for `CCC(CC)(c1ccc(OCC(O)C(C)(C)C)c(C)c1)c1ccc2cc(C(=O)O)ccc2c1` (single isomer, unassigned) [Ex. 2A, 6-{1-Ethyl-1-[4-(2-hydroxy-3,3-dimethyl-butoxy)-3-methyl-phenyl]-propyl}-naphthalene-2-carboxylic acid]?
EC50 (RXR-VDR heterodimer): 30.2 nM; Mouse Hypercal [1, 2]: 300 µg/kg/day

Which EC50 (RXR-VDR heterodimer) does the source give for `CCC(CC)(c1ccc(OCC(=O)C(C)(C)C)c(C)c1)c1ccc2cc(C(=O)O)ccc2c1` [Ex. 1, 6-{1-[4-(3,3-dimethyl-2-oxobutoxy)-3-methylphenyl]-1-ethylpropyl}naphthalene-2-carboxylic acid] here?
The EC50 was 40 nM.

And the “Mouse Hypercal” value [1, 3]?
Its value is 1000 µg/kg/day.

Which EC50 (RXR-VDR heterodimer) does the source give for `CCC(CC)(c1ccc(OCC(=O)C(C)(C)C)c(C)c1)c1ccc2cc(C(=O)NCC(=O)O)ccc2c1` [Ex. 3, [(6-{1-[4-(3,3-Dimethyl-2-oxo-butoxy)-3-methylphenyl]-1-ethylpropyl}naphthalene-2-carbonyl)amino]acetic acid] here?
Its EC50 is 0.4 nM.

And the “Mouse Hypercal” value [1, 2]?
The value was under 300 µg/kg/day.

Which EC50 (RXR-VDR heterodimer) does the source give for `CCC(CC)(c1ccc(OCC(=O)C(C)(C)C)c(C)c1)c1ccc2cc(C(=O)N(C)C)ccc2c1` [Ex. 4, 6-{1-[4-(3,3-dimethyl-2-oxobutoxy)-3-methylphenyl]-1-ethylpropyl}naphthalene-2-carboxylic acid dimethylamide] here?
Its EC50 is 105 nM.

And the “Mouse Hypercal” value [1, 3]?
The value was 1000 µg/kg/day.

For `CCC(CC)(c1ccc(OCC(=O)C(C)(C)C)c(C)c1)c1ccc2cc(C(=O)N(C)CC(=O)O)ccc2c1` [Ex. 5, [(6-{1-[4-(3,3-Dimethyl-2-oxobutoxy)-3-methylphenyl]-1-ethylpropyl}naphthalene-2-carbonyl)methylamino]acetic acid], which EC50 (RXR-VDR heterodimer) is on record?
Its EC50 is 1 nM.

And the “Mouse Hypercal” value [1, 2]?
Its value is under 30 µg/kg/day.
